The text below walks through data of PubChem BioAssay (NCI).

Where “and” joins values, the source holds several entries; their conditions need not be identical. Equal entries are not always repeated.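 Growth conditions: 96-well plates. Treatment: test compound, 48 hours, 5 concentrations. Analysis: linear interpolation between bracketing concentrations; unreached endpoints set to highest concentration. Abbreviation: GI50, concentration required for 50% inhibition of growth. Definition used: TGI = concentration required for complete inhibition of growth.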 A value given as a limit tells only on which side of the number the result lay.

Holding throughout (assay): NCI-60 cell line screen, 48 h
Test [1] concerns NCI-H522 lung.
In test [2] the test system is U251 CNS.
Test [3] has as its system UACC-257 melanoma.
The subject of test [4] is HT29 colon.
The test system of test [5] is IGROV1 ovarian.
In test [6] the test system is MALME-3M melanoma.
Test [7] has as its system OVCAR-3 ovarian.
In test [8] the test system is NCI/ADR-RES ovarian.
Test [9] deals with SF-268 CNS.
The test system of test [10] is TK-10 renal.

As for `Cn1c([N+](=O)[O-])cnc1/C=C1\Oc2ccc(Cl)cc2C1=O`, the GI50 in test [1] is 0.528 µM; in test [2], 1.16 µM; in test [3], 1.95 µM; in test [4] it was 0.254 µM; in test [5] it was 1.22 µM; in test [6] it was 1.42 µM. The GI50 in [7] is 0.307 µM; in test [8], 0.534 µM; in [9] it was 0.339 µM; in test [10] it was 1.04 µM. The TGI in test [1] was determined as 2.19 µM; in test [2], 3.01 µM; in test [3], 5.2 µM; in test [4], 0.757 µM; in test [5], 8.29 µM; in test [6], 4.78 µM. Also, the TGI in [7] was 0.952 µM; in [8], more than 22.5 µM; in test [9], 1.45 µM; in [10], 2.77 µM.
For the compound `C[CH2][Ge]1([CH2]C)[CH2]CC2(CCN(CCCN(C)C)C2)C[CH2]1`, the GI50 in test [1] is 1.3 µM and 11.2 µM; in test [2] it was 1.73 µM and 5.49 µM; in test [3], 1.31 µM; in test [4], 0.4 µM and 2.24 µM; in test [5], 1.75 µM and 4.54 µM; in test [6], 1.05 µM and 2.65 µM. Moreover, the GI50 in test [7] is 2.15 µM and 2.81 µM; in [8], 1.83 µM and 5.51 µM; in test [9], 1.81 µM; in test [10], 1.72 µM and 1.87 µM. Besides, the TGI was 2.88 µM and 24.4 µM in test [1]; 3.69 µM and 9.77 µM in test [2]; 2.64 µM in test [3]; 1.59 µM and 6.05 µM in [4]; 3.42 µM and 10.8 µM in test [5]; 1.96 µM and 4.33 µM in test [6]. The TGI in test [7] is 4.99 µM and 6.87 µM; in test [8] it was 4.58 µM and 13.4 µM; in test [9], 3.96 µM; in [10] it was 3.18 µM and 3.38 µM.
Consider `COC(=O)c1cc(CNCCc2c[nH]c3ccccc23)on1`, for which the TGI in [1] is 73.5 µM; in test [2], more than 100 µM; in test [3] it was more than 100 µM; in test [4], more than 100 µM; in test [5], more than 100 µM; in test [6] it was more than 100 µM. For the same compound, the TGI in [7], in [8], in test [9] and in test [10] was more than 100 µM throughout.
`C#Cc1cccc(NC(=O)Nc2cccc(NC(=O)CCl)c2)c1`: the GI50 is 15.2 µM in test [1]; 16.4 µM in test [2]; more than 82.5 µM in test [3]; 17.8 µM in test [4]; 11.6 µM in test [5]; 20.7 µM in test [6]. For the same compound, the GI50 in test [7] is 14.6 µM; in test [8], 20.1 µM; in test [9] it was 25.7 µM; in [10], 38 µM. Also, the TGI in test [1] is 48.6 µM; in [2], 39.3 µM; in test [3], more than 82.5 µM; in [4], 53.5 µM; in [5] it was 26 µM; in test [6] it was more than 82.5 µM. Moreover, the TGI in test [7] is 36.5 µM; in test [8], 75.7 µM; in [9] it was more than 82.5 µM; in [10], more than 82.5 µM.
On to `O=C(/C=C/CN1CCCCC1)Nc1cc2c(Nc3ccc(F)c(Cl)c3F)ncnc2cc1OCCOC(F)F`, for which the GI50 was 0.0493 µM in test [1]; 1.87 µM in test [2]; 1.74 µM in test [3]; 0.919 µM in test [4]; less than 0.0182 µM in [5]; 1.18 µM in test [6]. Besides, the GI50 is 0.284 µM in test [7], 0.446 µM in test [8], 1.14 µM in test [9] and less than 0.01 µM in test [10]. For the same compound, the TGI turned out to be 1.8 µM in test [1]; 9.25 µM in test [2]; 5.64 µM in [3]; 5.77 µM in test [4]; 0.815 µM in [5]; 2.91 µM in test [6]. Moreover, the TGI in test [7] came out at 2.55 µM; in test [8], 3.82 µM; in [9] it was 4.59 µM; in test [10] it was 1.36 µM.
In the case of `COc1ccc(-c2nccn2-c2cc(OC)c(OC)c(OC)c2)cc1`, the GI50 in test [1] is 2.8 µM; in [2] it was 3.85 µM; in test [3], 73.1 µM; in test [4], 1.05 µM; in [5], 1.79 µM; in test [6], 1.96 µM. The GI50 in test [7] is 1.07 µM; in test [8], 1.17 µM; in test [9], 16.6 µM; in test [10] it was 10.7 µM. In addition, the TGI is more than 100 µM in [1]; more than 100 µM in test [2]; more than 100 µM in [3]; more than 46.2 µM in [4]; more than 100 µM in test [5]; more than 100 µM in [6]. Besides, the TGI in test [8] was 22.2 µM; in test [9] it was more than 100 µM; in test [10] it was more than 100 µM.
